Experiment [1] addresses T1, OxLight1 (Homo sapiens, UniProt O43614, DEL254-292/I293E/K294R/L160H/M161K/Q254E).
T1 sequence (O43614 with tags, fused parts or gaps L160H/M161K/DEL254-292/I293E/K294R): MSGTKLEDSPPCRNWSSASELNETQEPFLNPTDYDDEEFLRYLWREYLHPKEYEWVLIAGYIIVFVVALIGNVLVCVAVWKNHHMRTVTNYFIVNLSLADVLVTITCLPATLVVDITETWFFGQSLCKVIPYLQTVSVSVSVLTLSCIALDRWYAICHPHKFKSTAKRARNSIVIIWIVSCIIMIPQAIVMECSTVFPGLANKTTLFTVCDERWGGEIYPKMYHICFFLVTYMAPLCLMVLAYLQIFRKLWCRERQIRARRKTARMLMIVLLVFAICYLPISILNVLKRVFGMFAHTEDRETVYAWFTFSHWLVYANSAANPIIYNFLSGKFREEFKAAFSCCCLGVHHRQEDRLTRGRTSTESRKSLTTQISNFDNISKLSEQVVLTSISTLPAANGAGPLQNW
The class given is cell-based. Particulars: OxLight1, 10 μM orexin, HEK cells, mean ± SEM.

Experiment [2] deals with T1, OxLight1. The class given is cell-based. To be noted: 10 μM, HEK293T, 37°C, mono-exponential fit, n = 8 dishes, mean ± SEM.
In experiment [3] the test system is OX2R. Nature of the experiment: Intracellular calcium signaling, OX2R-expressing HEK293T cells. Type of experiment: cell-based, human. Particulars: orexin-A and orexin-B.
Experiment [4] relates to OxLight1. Nature of the experiment: Photometry during anesthesia. Type of experiment: in vivo, mouse. To be noted: isoflurane 2% 10 min or medetomidine 0.5 mg/kg i.p., mice.
Experiment [5] relates to OxLight1 in basal forebrain or LH. Nature of the experiment: Photometry with polysomnographic recordings across sleep-wake states. The class given is in vivo, mouse. Particulars: 50 mg/kg, per os, mice.
Experiment [6] has as its target T1, OxLight1. The class given is cell-based. To be noted: 10 μM, HEK293T.
In experiment [7] the target is T1, OxLight1. The class given is cell-based. To be noted: Almorexant 10 μM after OXB 5 μM.
In experiment [8] the test system is OX2R. Nature of the experiment: Mini-G protein recruitment to OX2R, TIRF microscopy. The class given is cell-based, human. Particulars: OXB 50 nM.
For experiment [9], the system named is OX2R. Nature of the experiment: beta-Arrestin-2 recruitment to OX2R, TIRF microscopy. The class given is cell-based, human. Particulars: agonist stimulation 15 min. For orientation: Recruitment of arrestin is a read-out of receptor activation apart from second messengers.

Consider “orexin-B: endogenous orexin neuropeptide”, for which the “ΔF/F0, maximal response” value in [1] is on record as 859 ± 27%. Also, the “activation time constant τ” value in experiment [2] was determined as 618 ± 98 ms. Besides, the “intracellular Ca2+ response” value in experiment [3] is on record as “robust intracellular Ca^2+ responses”. For the molecule `FC(F)OC(Cl)C(F)(F)F` (stereo not shown) [isoflurane], the “effect on OxLight1 signal” value in experiment [4] is “significant decrease in OxLight1 signal”. With `Cc1ccc(-n2nccn2)c(C(=O)N2CCN(c3nc4cc(Cl)ccc4o3)CC[C@H]2C)c1` [Suvorexant], the “effect on OxLight1 response across sleep-wake states” value in experiment [5] is “significantly reduced the response of OxLight1”. Regarding `Cc1cccc(C(C)c2cnc[nH]2)c1C` (stereo not shown) [medetomidine], in experiment [4], the “effect on OxLight1 signal” value is reported as “no change”. For Dynorphin, the “OxLight1 response to neuropeptide” value in experiment [6] is reported as “lack of response”. Turning to `CNC(=O)[C@@H](c1ccccc1)N1CCc2cc(OC)c(OC)cc2[C@@H]1CCc1ccc(C(F)(F)F)cc1` [Almorexant], in experiment [7], the “reversal of fluorescence response” value is “fully reversed”.

B1: OX2R: wild-type human orexin type-2 receptor (protein, UniProt O43614 1-444, looked up)
Orexin receptor type 2: MSGTKLEDSPPCRNWSSASELNETQEPFLNPTDYDDEEFLRYLWREYLHPKEYEWVLIAGYIIVFVVALIGNVLVCVAVWKNHHMRTVTNYFIVNLSLADVLVTITCLPATLVVDITETWFFGQSLCKVIPYLQTVSVSVSVLTLSCIALDRWYAICHPLMFKSTAKRARNSIVIIWIVSCIIMIPQAIVMECSTVFPGLANKTTLFTVCDERWGGEIYPKMYHICFFLVTYMAPLCLMVLAYLQIFRKLWCRQIPGTSSVVQRKWKPLQPVSQPRGPGQPTKSRMSAVAAEIKQIRARRKTARMLMIVLLVFAICYLPISILNVLKRVFGMFAHTEDRETVYAWFTFSHWLVYANSAANPIIYNFLSGKFREEFKAAFSCCCLGVHHRQEDRLTRGRTSTESRKSLTTQISNFDNISKLSEQVVLTSISTLPAANGAGPLQNW
B1: in experiment [8], the mini-G recruitment entry is “selective and strong recruitment of mini-Gq”. Besides, the β-arrestin-2 engagement entry in experiment [9] was “robust β-arrestin-2 engagement”.

The record behind these values is paper PMC8831244 (Nature methods, 2022).
